This passage reports solubility (mole fraction) results from BigSolDB 2.1.

In general, solubility (mole fraction) refers to the moles of solute divided by all moles in the saturated solution.

Molecules are shown by their SMILES.

In the case of `NC(=S)c1ccncc1`, the solubility (mole fraction) reads like this: (in n-hexane, 293.15 K) 2.97e-06; (in n-hexane, 298.15 K) 3.73e-06; (in n-hexane, 303.15 K) 4.47e-06; (in n-hexane, 308.15 K) 5.47e-06; (in n-hexane, 313.15 K) 6.67e-06; (in n-octanol, 293.15 K) 0.00347. In addition, the solubility (mole fraction) runs as follows: (in n-octanol, 298.15 K) 0.00431; (in n-octanol, 303.15 K) 0.00516; (in n-octanol, 308.15 K) 0.0062; (in n-octanol, 313.15 K) 0.00744.

Compound `CCc1cc(C(N)=S)ccn1` registered a solubility (mole fraction) (in n-hexane, 293.15 K) of 1.84e-05; a solubility (mole fraction) (in n-hexane, 298.15 K) of 2.22e-05; a solubility (mole fraction) (in n-hexane, 303.15 K) of 2.73e-05; a solubility (mole fraction) (in n-hexane, 308.15 K) of 3.2e-05; a solubility (mole fraction) (in n-hexane, 313.15 K) of 3.88e-05; a solubility (mole fraction) (in n-octanol, 293.15 K) of 0.00674. The solubility (mole fraction) came to 0.00868 (in n-octanol, 298.15 K); 0.0108 (in n-octanol, 303.15 K); 0.0133 (in n-octanol, 308.15 K); 0.016 (in n-octanol, 313.15 K).

As to `NC(=S)c1ccccn1`, the solubility (mole fraction) reads like this: (in n-hexane, 293.15 K) 0.000199; (in n-hexane, 298.15 K) 0.000248; (in n-hexane, 303.15 K) 0.000325; (in n-hexane, 308.15 K) 0.000404; (in n-hexane, 313.15 K) 0.000518; (in n-octanol, 293.15 K) 0.00952. In addition, the solubility (mole fraction) (in n-octanol, 298.15 K) is 0.012; the solubility (mole fraction) (in n-octanol, 303.15 K) came out at 0.0147; the solubility (mole fraction) (in n-octanol, 308.15 K) was determined as 0.0183; the solubility (mole fraction) (in n-octanol, 313.15 K) is 0.0222.
